Assay results reported in article PMC6429055, “Synthesis, Photochemical and In Vitro Cytotoxic Evaluation of New Iodinated Aminosquaraines as Potential Sensitizers for Photodynamic Therapy” (Molecules, 2019).
Where two headings read alike, the source gives them in different places.

How the values were obtained:
[1] = Fluorescence quantum yield; assay type: physicochemical; settings: In CHCl3
Description: As expected, due to the covalent link between iodine and the aminosquaraine, a strong heavy atom effect can be observed in all cases. This effect is emphasized in the case of the bis(hydroxyethyl)amino substituent group (dye 5c).

[2] = Singlet oxygen formation quantum yield (phosphorescence emission at ~1270 nm vs phenazine standard); assay type: physicochemical; settings: In CHCl3, excitation 337 nm
Protocol: The evaluation of the photosensitizing efficiency of the aminosquaraine dyes was performed in chloroform, by determining the singlet oxygen formation quantum yields (ΦΔ). Phenazine was used as standard. The phosphorescence emission of singlet oxygen generated by the sensitizers at approximately 1270 nm is presented in Figure 2 and the determined quantum yields are summarized in Table 1.
These ΦΔ values were obtained by a simple comparison of the integrated areas determined for the standard and samples, using the same OD at the excitation wavelength. For each determination an average of 100 phosphorescence spectra were used. […] As previously reported, the amino group in the squaric ring enhances singlet oxygen generation efficiency when compared with the unsubstituted zwitterionic dye 3. […] This is related with the intramolecular charge transfer (ICT) mechanism which provides a non-radiative deactivation pathway, therefore decreasing the singlet oxygen formation quantum yields ([44] and references therein).
The singlet oxygen measurement set-up was assembled in our laboratory as previously described. As an excitation source we used a nitrogen laser, excitation wavelength = 337 nm. The detector was an InGaAs CCD (model i-Dus from Andor Technology Limited, Belfast, UK) working at low temperature (−60 °C) coupled to a fixed spectrograph, model Shamrock 163i, also from Andor. Phenazine (standard) was used at O.D. = 0.6 in chloroform. The ΦΔ values were obtained by comparing the total area of the emission spectra for the reference and for each dye under study in the same solvent, with the same optical density at the excitation wavelength. […].

[3] = system: HeLa (cervical carcinoma); assay: SRB cytotoxicity, dark and after irradiation (photodynamic treatment); assay type: cell-based; settings: Homo sapiens, mean ± SD
Protocol: (§1) Stock solutions of the aminosquaraines 5a–e with different concentrations (0.0375 μM, 0.15 μM, 0.6 μM, 6 μM, 12 μM, 25 μM, 50 μM, 500 μM) were prepared using a solution of 3% DMSO in DMEM and kept at−20 °C. Prior to the in vitro assays diluted solutions were prepared with the same solvent to obtain solutions with final concentrations of 0.03 μM, 0.3 μM, 0.6 μM, 1.25 μM, 2.5 μM and 25 μM.
(§2) The cytotoxicity of the squaraine dyes was tested in the dark and under irradiation. For irradiation of the cells a halogen/tungsten lamp (24 V and 250 W, Osram, Carnaxide, Portugal) was used with a fluence rate of […] (measured with an ILT 1400-A radiometer equipped with a SEL033 detector, ILT, Peabody, MA, USA). The cells were irradiated continuously for 30 min. A 3% aqueous solution of K2Cr2O7 was placed between the lamp and the cells as a liquid cut off filter to remove light of wavelength shorter than ~500 nm. The temperature to which the cells were exposed was carefully monitored to guarantee cell viability.
(§3) Four human tumor cell lines were used: MCF-7 (breast adenocarcinoma), NCI-H460 (non-small cell lung carcinoma), HeLa (cervical carcinoma) and HepG2 (hepatocellular carcinoma) from DSMZ (Leibniz-Institut DSMZ-Deutsche Sammlung von Mikroorganismen und Zellkulturen GmbH, Mönchengladbach, Germany). Cells were routinely maintained as adherent cell cultures in RPMI-1640 medium containing 10% heat-inactivated FBS and 2 mM glutamine at […], in a humidified air incubator containing 5% CO2. Each cell line was plated at an appropriate density (7.5 × 10^3 cells/well for MCF-7 and NCI-H460, and 1.0 × 10^4 cells/well for HeLa and HepG2) in 96-well plates, allowed to attach for 24 h and then treated with different concentrations of each squaraine dye. Controls were set with the cells in the absence of the dyes in 3% DMSO in DMEM and in the growth medium only. After the incubation step (24 h), the cells were submitted to the photodynamic treatment for 30 min. Controls in the absence of light were performed on every test. Neither DMSO alone, nor light alone, nor the combination of both induced toxicity on the cells. Then, the growth medium was changed and the cells were incubated for further 24 h. Following this incubation period, the adherent cells were fixed by adding cold 10% TCA (100 µL) and incubated for 60 min at 4 °C. Plates were then washed with deionized water and subsequently dried. SRB solution (0.1% in 1% acetic acid, 100 µL) was then added to each plate well and incubated for 30 min at room temperature. Unbound SRB was removed by washing with 1% acetic acid. Plates were air dried, the bound SRB was solubilized with 10 mM Tris (200 µL) and the absorbance was measured at 540 nm in an ELX800 Microplate Reader (Bio-Tek Instruments Inc., Winooski, VT, USA). The results were expressed in GI50 values, which correspond to the concentration of dye that causes 50% inhibition of cell growth. All the assays were performed in duplicate. Ellipticine was used as standard.

[4] = system: HepG2 (hepatocellular carcinoma); assay: as above; assay type: cell-based; settings: Homo sapiens, mean ± SD
Protocol: as §1, §2, §3

[5] = system: MCF-7 (breast adenocarcinoma); assay: as above; assay type: cell-based; settings: Homo sapiens, mean ± SD
Protocol: as §1, §2, §3

[6] = system: NCI-H460 (non-small cell lung carcinoma); assay: as above; assay type: cell-based; settings: Homo sapiens, mean ± SD
Protocol: as §1, §2, §3

[7] = SRB cytotoxicity in non-tumor porcine liver primary cell culture, dark and after irradiation; assay type: cell-based; settings: pig, PLP2 porcine liver primary cell culture (non-tumor), non-tumor cells, mean ± SD
Protocol: as §1, §2
A cell culture was prepared from a freshly harvested porcine liver obtained from a local slaughter house, and it was designed as PLP2. Briefly, the liver tissues were rinsed in Hank’s balanced salt solution containing 100 U/mL penicillin and 100 µg/mL streptomycin and divided into 1×1 mm^3 explants to ensure that all liver cells were able to access the nutrients provided by the medium. Some of these explants were placed in 25 cm^2 tissue flasks in DMEM medium supplemented with 10% fetal bovine serum, 2 mM non-essential amino acids and 100 U/mL penicillin, […] streptomycin and incubated at 37 °C with a humidified atmosphere containing 5% CO2. The medium was changed every two days. Cultivation of the cells was continued with direct monitoring every two or three days using a phase contrast microscope. Before confluence was reached, cells were subcultured and plated in 96-well plates at a density of 1.0 × 10^4 cells/well, and cultivated in DMEM medium with 10% FBS, 100 U/mL penicillin and 100 µg/mL streptomycin [47]. The PLP2 cells were incubated with the squaraine dyes and submitted to the two independent processes—dark and irradiation—as described earlier for the human tumor cell lines. The SRB assay was performed according to the procedure previously described. The results were expressed in GI50 values. All the assays were performed in duplicate. Ellipticine was used as standard.

[8] = system: HeLa, HepG2, MCF-7 and NCI-H460 cell lines; assay: SRB growth inhibition across the human tumor cell line panel, dark vs irradiation (text summaries); assay type: cell-based; settings: for GI50: Homo sapiens; for Difference between growth inhibition percentages upon illumination and in the dark: dye 0.3 μM, range over the cell lines
Protocol: In this representative example, the growth inhibition in the dark was less than 20% in more than 75% of the assays.
as §1, §2, §3

[9] = light or radiation study, 0.5 h, Irradiated 30 min, halogen/tungsten lamp >500 nm
[10] = HepG2, light or radiation study, 0.5 h, Irradiated 30 min, halogen/tungsten lamp >500 nm
[11] = MCF7, light or radiation study, 0.5 h, Irradiated 30 min, halogen/tungsten lamp >500 nm
[12] = NCI-H460, light or radiation study, 0.5 h, Irradiated 30 min, halogen/tungsten lamp >500 nm
[13] = light or radiation study, irradiated, range over cell lines, stated jointly for 5a and 5b, read-out: GI50 upon illumination, range over all the cell lines tested

With `CCN1C(=CC2=C([O-])C(=Cc3sc4cc(I)ccc4[n+]3CC)C2=O)Sc2cc(I)ccc21` [Dye 3, 4-[(3-Ethyl-6-iodobenzothiazol-3-ium-2-yl)methylidene]-2-[(3-ethyl-6-iodo-3H-benzothiazol-2-ylidene)methyl]-3-oxocyclobut-1-en-1-olate] the “ΦF (fluorescence quantum yield)” value [1] was 0.03, the “Φ∆ (singlet oxygen generation quantum yield)” value [2] was 0.05 and the melting point was > 300 °C.
`CCN1C(=CC2=C(N)C(=Cc3sc4cc(I)ccc4[n+]3CC)C2=O)Sc2cc(I)ccc21.[I-]` [Dye 5a, 2-[2-Amino-3-(3-ethyl-6-iodo-3H-benzothiazol-2-ylidenemethyl)-4-oxocyclobut-2-enylidenemethyl]-3-ethyl-6-iodobenzothiazol-3-ium iodide] showed a GI50 ([3]; Dark) of 2540 ± 20 nM, a GI50 [3, 9] of 4 ± 0.1 nM and a GI50 [4, 10] of 80 ± 1 nM. For the same compound, the GI50 ([4]; HepG2, Dark) was 20000 ± 2000 nM, the GI50 [5, 11] was 10 ± 1 nM and the GI50 ([5]; MCF7, Dark) was 15000 ± 1000 nM. It also gave a GI50 [6, 12] of 190 ± 20 nM, a GI50 ([6]; NCI-H460, Dark) of 15300 ± 800 nM and a GI50 ([7]; Dark) of 17500 ± 100 nM. For the same compound, the GI50 ([7]; Irradiated 30 min) was 2000 ± 100 nM, the “ΦF (fluorescence quantum yield)” value [1] was 0.02 and the “Φ∆ (singlet oxygen generation quantum yield)” value [2] was 0.22. For the same compound, the GI50 [8, 13] was 4 to 190 nM, the “Difference between growth inhibition percentages upon illumination and in the dark” value [8] was 46–68% and the melting point was > 300 °C.
In the case of `CCN1C(=CC2=C(NC)C(=Cc3sc4cc(I)ccc4[n+]3CC)C2=O)Sc2cc(I)ccc21.[I-]` [Dye 5b, 3-Ethyl-2-[3-(3-ethyl-6-iodo-3H-benzothiazol-2-ylidenemethyl)-2-(methylamino)-4-oxocyclobut-2-enylidenemethyl]-6-iodobenzothiazol-3-ium iodide], the GI50 ([3]; Dark) is reported as 1200 ± 100 nM, the GI50 [3, 9] is reported as 11 ± 10 nM and the GI50 [4, 10] is reported as 60 ± 1 nM. It also gave a GI50 ([4]; HepG2, Dark) of 15000 ± 2000 nM, a GI50 [5, 11] of 10 ± 1 nM and a GI50 ([5]; MCF7, Dark) of 10000 ± 700 nM. The GI50 [6, 12] was 180 ± 70 nM, the GI50 ([6]; NCI-H460, Dark) was 8100 ± 900 nM and the GI50 ([7]; Dark) was 5700 ± 600 nM. The GI50 ([7]; Irradiated 30 min) was 30 ± 1 nM, the “ΦF (fluorescence quantum yield)” value [1] was 0.03 and the “Φ∆ (singlet oxygen generation quantum yield)” value [2] was 0.26. For the same compound, the GI50 [8, 13] was 4 to 190 nM, the “Difference between growth inhibition percentages upon illumination and in the dark” value [8] was 43–73% and the melting point was > 300 °C.
With `CCN1C(=CC2=C(N(CCO)CCO)C(=Cc3sc4cc(I)ccc4[n+]3CC)C2=O)Sc2cc(I)ccc21.[I-]` [Dye 5c, 3-Ethyl-2-{3-(3-ethyl-6-iodo-3H-benzothiazol-2-ylidenemethyl)-2-[bis(2-hydroxy-ethyl)amino]-4-oxocyclobut-2-enylidenemethyl}-6-iodobenzothiazol-3-ium iodide] the GI50 ([3]; Dark) was 2000 ± 100 nM, the GI50 [3, 9] was 310 ± 30 nM and the GI50 [4, 10] was 260 ± 30 nM. For the same compound, the GI50 ([4]; HepG2, Dark) was 23000 ± 2000 nM, the GI50 [5, 11] was 420 ± 60 nM and the GI50 ([5]; MCF7, Dark) was > 25000 nM. For the same compound, the GI50 [6, 12] was 980 ± 40 nM, the GI50 ([6]; NCI-H460, Dark) was 23000 ± 2000 nM and the GI50 ([7]; Dark) was 22000 ± 900 nM. The GI50 ([7]; Irradiated 30 min) was 440 ± 10 nM, the “ΦF (fluorescence quantum yield)” value [1] was 0.01 and the “Φ∆ (singlet oxygen generation quantum yield)” value [2] was 0.09. The melting point was > 300 °C.
In the case of `CCN1C(=CC2=C(NCCO)C(=Cc3sc4cc(I)ccc4[n+]3CC)C2=O)Sc2cc(I)ccc21.[I-]` [Dye 5d, 3-Ethyl-2-{3-(3-ethyl-6-iodo-3H-benzothiazol-2-ylidenemethyl)-2-[(2-hydroxy-ethyl)amino]-4-oxocyclobut-2-enylidenemethyl}-6-iodobenzothiazol-3-ium iodide], the GI50 ([3]; Dark) is reported as 1800 ± 100 nM, the GI50 [3, 9] is reported as 190 ± 10 nM and the GI50 [4, 10] is reported as 380 ± 30 nM. The GI50 ([4]; HepG2, Dark) was > 25000 nM, the GI50 [5, 11] was 250 ± 40 nM and the GI50 ([5]; MCF7, Dark) was > 25000 nM. The GI50 [6, 12] was 890 ± 10 nM, the GI50 ([6]; NCI-H460, Dark) was > 25000 nM and the GI50 ([7]; Dark) was > 25000 nM. For the same compound, the GI50 ([7]; Irradiated 30 min) was 980 ± 20 nM, the “ΦF (fluorescence quantum yield)” value [1] was 0.11 and the “Φ∆ (singlet oxygen generation quantum yield)” value [2] was 0.19. For the same compound, the GI50 ([8]; HeLa, dark, inactive within the range of concentrations used, read-out: GI50 in the dark, all cell lines with exception of HeLa) was > 25000 nM and the melting point was > 300 °C.
Work on `CCN1C(=CC2=C(N(C)CCO)C(=Cc3sc4cc(I)ccc4[n+]3CC)C2=O)Sc2cc(I)ccc21.[I-]` [Dye 5e, 3-Ethyl-2-{3-(3-ethyl-6-iodo-3H-benzothiazol-2-ylidenemethyl)-2-[(2-hydroxy-ethyl)methylamino]-4-oxocyclobut-2-enylidenemethyl}-6-iodobenzothiazol-3-ium iodide] yielded a GI50 ([3]; Dark) of 2100 ± 200 nM, a GI50 [3, 9] of 190 ± 20 nM and a GI50 [4, 10] of 190 ± 10 nM. For the same compound, the GI50 ([4]; HepG2, Dark) was 11400 ± 900 nM, the GI50 [5, 11] was 230 ± 20 nM and the GI50 ([5]; MCF7, Dark) was 9600 ± 200 nM. For the same compound, the GI50 [6, 12] was 240 ± 30 nM, the GI50 ([6]; NCI-H460, Dark) was 13000 ± 1000 nM and the GI50 ([7]; Dark) was 11900 ± 200 nM. For the same compound, the GI50 ([7]; Irradiated 30 min) was 420 ± 10 nM, the “ΦF (fluorescence quantum yield)” value [1] was 0.09 and the “Φ∆ (singlet oxygen generation quantum yield)” value [2] was 0.16. The melting point was > 300 °C.
